Source: patent publication US20240150377A1, “MODULATORS OF CYSTIC FIBROSIS TRANSMEMBRANE CONDUCTANCE REGULATOR” (VERTEX PHARMACEUTICALS INCORPORATED, priority 2020, published 2024)
Where two headings read alike, the source gives them in different places.

Biological target: T1, CFTR (Homo sapiens, UniProt P13569, DEL508-508)
T1 construct: endogenous in cells; host or cells: primary human bronchial epithelial cells from CF subjects (F508del/MF-HBE), differentiated at air-liquid interface
Assay: HBE assay: Ussing chamber assay of CFTR-mediated short-circuit currents
Assay type: cell-based
Conditions: for activation at 10 µM: read-out: HBE Activity at 10 μM (%); for EC50: read-out: HBE EC50
Method in brief: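 CFTR-mediated Isc (μA/cm²) equals the peak response to apical 20 μM forskolin minus the residual after a 20 μM each BPO/GlyH-101/CFTR inhibitor 172 cocktail, recorded in Ussing chambers at Vhold 0 mV, 37 °C, pH 7.4, with 30 μM apical amiloride. Cells were F508del/MF HBE cultures preincubated 18-24 h with corrector (concentration range or 10 μM) plus 1 μM ivacaftor in 20% human serum.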

[1] = Table 12, read-out: HBE Max Activity (%)
[2] = Table 13, read-out: HBE Max Activity (%)
[3] = Table 11, read-out: HBE Max Activity (%)
[4] = Table 10, read-out: HBE Max activity (%)

T1 sequence (P13569 with tags, fused parts or gaps DEL508-508): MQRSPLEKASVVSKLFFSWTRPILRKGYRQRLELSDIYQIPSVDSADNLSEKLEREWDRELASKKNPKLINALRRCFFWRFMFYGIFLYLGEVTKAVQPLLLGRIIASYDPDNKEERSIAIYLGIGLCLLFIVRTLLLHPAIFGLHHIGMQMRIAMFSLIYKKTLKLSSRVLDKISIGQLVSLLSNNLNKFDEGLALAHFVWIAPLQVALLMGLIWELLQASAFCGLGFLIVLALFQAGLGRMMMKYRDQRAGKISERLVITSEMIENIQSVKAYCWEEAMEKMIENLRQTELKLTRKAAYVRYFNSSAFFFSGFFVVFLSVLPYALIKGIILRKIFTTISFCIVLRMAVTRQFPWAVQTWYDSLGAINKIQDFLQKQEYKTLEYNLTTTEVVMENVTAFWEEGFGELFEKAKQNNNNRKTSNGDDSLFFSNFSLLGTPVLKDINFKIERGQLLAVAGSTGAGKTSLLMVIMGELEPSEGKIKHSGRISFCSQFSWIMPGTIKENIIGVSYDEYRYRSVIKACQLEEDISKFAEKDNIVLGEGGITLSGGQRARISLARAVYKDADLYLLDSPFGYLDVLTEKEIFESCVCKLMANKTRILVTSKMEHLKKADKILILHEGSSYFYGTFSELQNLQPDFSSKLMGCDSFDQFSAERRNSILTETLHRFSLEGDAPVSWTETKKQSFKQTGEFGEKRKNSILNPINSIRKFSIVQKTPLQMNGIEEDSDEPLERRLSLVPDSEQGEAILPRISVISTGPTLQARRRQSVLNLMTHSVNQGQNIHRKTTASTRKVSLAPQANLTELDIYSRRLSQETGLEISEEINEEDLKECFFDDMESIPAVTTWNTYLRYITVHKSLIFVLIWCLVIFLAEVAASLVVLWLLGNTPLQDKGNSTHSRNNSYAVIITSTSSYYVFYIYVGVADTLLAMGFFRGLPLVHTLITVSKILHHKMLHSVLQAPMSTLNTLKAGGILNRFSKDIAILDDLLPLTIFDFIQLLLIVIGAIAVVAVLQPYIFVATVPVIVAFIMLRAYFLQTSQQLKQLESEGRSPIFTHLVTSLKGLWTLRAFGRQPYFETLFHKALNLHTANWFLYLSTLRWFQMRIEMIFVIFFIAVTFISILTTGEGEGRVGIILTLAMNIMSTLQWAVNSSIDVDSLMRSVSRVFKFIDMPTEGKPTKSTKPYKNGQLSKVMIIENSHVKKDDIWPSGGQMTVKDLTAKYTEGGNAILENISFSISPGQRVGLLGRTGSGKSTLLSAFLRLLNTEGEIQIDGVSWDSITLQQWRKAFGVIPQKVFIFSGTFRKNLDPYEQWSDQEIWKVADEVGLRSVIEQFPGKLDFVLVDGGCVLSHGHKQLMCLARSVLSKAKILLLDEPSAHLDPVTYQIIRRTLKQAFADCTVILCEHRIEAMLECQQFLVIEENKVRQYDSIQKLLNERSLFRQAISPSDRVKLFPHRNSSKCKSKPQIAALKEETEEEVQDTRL

| SMILES | EC50 (Table 13) | Emax [2] | also measured |
| --- | --- | --- | --- |
| Cc1cccc(C)c1-c1cc2nc(n1)NS(=O)(=O)c1cccc(c1)C(=O)N(CC1CC(C)(C)C1)[C@H](CC(C)(C)C)CO2 [Compound 1007] |  |  | activation at 10 µM (Table 12): > 600% |
| Cc1cccc(C)c1-c1cc2nc(n1)NS(=O)(=O)c1cccc(c1)C(=O)N(Cc1ncc(N(C)C)c(C)n1)[C@H](CC(C)(C)C)CO2 [Compound 1008] |  |  | activation at 10 µM (Table 12): > 600% |
| Cc1cc(C)nc(CN2C(=O)c3cccc(c3)S(=O)(=O)Nc3nc(cc(-c4c(C)cccc4C)n3)OC[C@H]2CC(C)(C)C)n1 [Compound 1009] |  |  | EC50 (Table 12): < 1000 nM; Emax [1]: > 60% |
| Cc1cccc(C)c1-c1cc2nc(n1)NS(=O)(=O)c1cccc(c1)C(=O)N(Cc1ncc(N3CC4(CCOC4)C3)cn1)[C@H](CC(C)(C)C)CO2 [Compound 1054] | < 1000 nM | > 60% |  |
| Cc1cccc(C)c1-c1cc2nc(n1)NS(=O)(=O)c1cccc(c1)C(=O)N(Cc1ccc(N3CC4(CCOC4)C3)cn1)[C@H](CC(C)(C)C)CO2 [Compound 1055] |  |  | activation at 10 µM (Table 13): > 600% |
| Cc1cccc(C)c1-c1cc2nc(n1)NS(=O)(=O)c1cccc(c1)C(=O)N(Cc1ccc(N3CC4(CC(=O)C4)C3)cn1)[C@H](CC(C)(C)C)CO2 [Compound 1056] | 1000 to 3000 nM | > 60% |  |
| Cc1cccc(C)c1-c1cc2nc(n1)NS(=O)(=O)c1cccc(c1)C(=O)N(Cc1ccc(C3CC4(C3)CC(C)(C)C4)cn1)[C@H](CC(C)(C)C)CO2 [Compound 1057] |  |  | activation at 10 µM (Table 13): > 600% |
| Cc1cccc(C)c1-c1cc2nc(n1)NS(=O)(=O)c1cccc(c1)C(=O)N(Cc1ccc(N3CC4(CCCO4)C3)cn1)[C@H](CC(C)(C)C)CO2 [Compound 1058] | < 1000 nM | > 60% |  |
| COC1(C)CCN(c2ccc(CN3C(=O)c4cccc(c4)S(=O)(=O)Nc4nc(cc(-c5c(C)cccc5C)n4)OC[C@H]3CC(C)(C)C)nc2)CC1 [Compound 1059] | < 1000 nM | > 60% |  |
| Cc1cccc(C)c1-c1cc2nc(n1)NS(=O)(=O)c1cccc(c1)C(=O)N(Cc1ccc(N3CC4(CCOCC4)C3)cn1)[C@H](CC(C)(C)C)CO2 [Compound 1060] | < 1000 nM | > 60% |  |
| Cc1cccc(C)c1-c1cc2nc(n1)NS(=O)(=O)c1cccc(c1)C(=O)N(Cc1ccc(C3COC(C)(C)C3)cn1)[C@H](CC(C)(C)C)CO2 (stereo partly shown) [Compound 1062] |  |  | activation at 10 µM (Table 13): > 600% |
| Cc1cccc(C)c1-c1cc2nc(n1)NS(=O)(=O)c1cccc(c1)C(=O)N(Cc1ccc(N3CC4(COC4)C3)cn1)[C@H](CC(C)(C)C)CO2 [Compound 1063] | < 1000 nM | > 60% |  |
| Cc1cccc(C(C)C)c1-c1cc2nc(n1)NS(=O)(=O)c1cccc(c1)C(=O)N(Cc1cnc(C3CCOCC3)cn1)[C@H](CC(C)(C)C)CO2 [Compound 1064] |  |  | EC50 (Table 12): < 1000 nM; Emax [1]: > 60% |
| Cc1cccc(C)c1-c1cc2nc(n1)NS(=O)(=O)c1cccc(c1)C(=O)C(Cc1ccc(C3CCCOC3)cn1)[C@H](CC(C)(C)C)CO2 (stereo partly shown) [Compound 1065] |  |  | EC50 (Table 12): < 1000 nM; Emax [1]: > 60% |
| COc1ccc(F)c(CN2C(=O)c3cccc(c3)S(=O)(=O)Nc3nc(cc(-c4c(C)cccc4C)n3)OC[C@H]2CC(C)(C)C)n1 [Compound 1066] | < 1000 nM | > 60% |  |
| COc1cnc(CN2C(=O)c3cccc(c3)S(=O)(=O)Nc3nc(cc(-c4c(C)cccc4C)n3)OC[C@H]2CC(C)(C)C)c(Cl)c1 [Compound 1067] | < 1000 nM | > 60% |  |
| Cc1cccc(C)c1-c1cc2nc(n1)NS(=O)(=O)c1cccc(c1)C(=O)N(Cc1ncccc1F)[C@H](CC(C)(C)C)CO2 [Compound 1068] | < 1000 nM | > 60% |  |
| Cc1cncc(CN2C(=O)c3cccc(c3)S(=O)(=O)Nc3nc(cc(-c4c(C)cccc4C)n3)OC[C@H]2CC(C)(C)C)n1 [Compound 1069] |  |  | EC50 (Table 11): < 1000 nM; Emax [3]: > 60% |
| Cc1ccnc(CN2C(=O)c3cccc(c3)S(=O)(=O)Nc3nc(cc(-c4c(C)cccc4C)n3)OC[C@H]2CC(C)(C)C)c1 [Compound 1070] |  |  | EC50 (Table 11): < 1000 nM; Emax [3]: > 60% |
| Cc1cccc(C)c1-c1cc2nc(n1)NS(=O)(=O)c1cccc(c1)C(=O)N(Cc1cc(C3CC3)on1)[C@H](CC(C)(C)C)CO2 [Compound 1071] |  |  | EC50 (Table 11): < 1000 nM; Emax [3]: > 60% |
| Cc1cccc(C)c1-c1cc2nc(n1)NS(=O)(=O)c1cccc(c1)C(=O)N(Cc1ncc(N(C)C)cn1)[C@H](CC(C)(C)C)CO2 [Compound 1072] |  |  | Emax [4]: > 60% |
| Cc1cccc(C)c1-c1cc2nc(n1)NS(=O)(=O)c1cccc(c1)C(=O)N(Cc1ccc(C(C)(C)C)nc1)[C@H](CC(C)(C)C)CO2 [Compound 1074] |  |  | Emax [4]: > 60% |
| Cc1ccc2ccccc2c1-c1cc2nc(n1)NS(=O)(=O)c1cccc(c1)C(=O)N(Cc1ccc(N3CCOCC3)cn1)[C@H](CC(C)(C)C)CO2 [Compound 1075] |  |  | EC50 (Table 10): < 1000 nM; Emax [4]: > 60% |

| SMILES | EC50 (Table 13) | Emax [2] | also measured |
| --- | --- | --- | --- |
| Cc1cccc(C)c1-c1cc2nc(n1)NS(=O)(=O)c1cccc(c1)C(=O)N(Cc1ncc(Cl)cc1F)[C@H](CC(C)(C)C)CO2 [Compound 1111] | < 1000 nM | > 60% |  |
| COc1cnc(CN2C(=O)c3cccc(c3)S(=O)(=O)Nc3nc(cc(-c4c(C)cccc4C)n3)OC[C@H]2CC(C)(C)C)c(F)c1 [Compound 1112] | < 1000 nM | > 60% |  |
| Cc1ccc(F)c(CN2C(=O)c3cccc(c3)S(=O)(=O)Nc3nc(cc(-c4c(C)cccc4C)n3)OC[C@H]2CC(C)(C)C)n1 [Compound 1113] | < 1000 nM | > 60% |  |
| Cc1cccc(C)c1-c1cc2nc(n1)NS(=O)(=O)c1cccc(c1)C(=O)N(Cc1cc(OC(C)C)ccn1)[C@H](CC(C)(C)C)CO2 [Compound 1114] |  |  | activation at 10 µM (Table 13): > 600% |
| Cc1cccc(C)c1-c1cc2nc(n1)NS(=O)(=O)c1cccc(c1)C(=O)N(CC1(C(=O)NC3CCCCC3)CC1)[C@H](CC(C)(C)C)CO2 [Compound 1115] |  |  | activation at 10 µM (Table 13): > 600% |
| Cc1cc(OC(C)C)cnc1CN1C(=O)c2cccc(c2)S(=O)(=O)Nc2nc(cc(-c3c(C)cccc3C)n2)OC[C@H]1CC(C)(C)C [Compound 1116] | < 1000 nM | > 60% |  |
| COc1cc(OC(C)C)cnc1CN1C(=O)c2cccc(c2)S(=O)(=O)Nc2nc(cc(-c3c(C)cccc3C)n2)OC[C@H]1CC(C)(C)C [Compound 1117] | < 1000 nM | > 60% |  |
| Cc1cccc(C)c1-c1cc2nc(n1)NS(=O)(=O)c1cccc(c1)C(=O)N(Cc1ncc(N3CCC(C)(C)C3)cc1C(F)(F)F)[C@H](CC(C)(C)C)CO2 [Compound 1118] | < 1000 nM | > 60% |  |
| Cc1cccc(C)c1-c1cc2nc(n1)NS(=O)(=O)c1cccc(c1)C(=O)N(Cc1ncc(Br)cc1C(F)(F)F)[C@H](CC(C)(C)C)CO2 [Compound 1119] |  |  | activation at 10 µM (Table 13): > 600% |
| Cc1cccc(C)c1-c1cc2nc(n1)NS(=O)(=O)c1cccc(c1)C(=O)N(Cc1ncc(OC(C)C)cn1)[C@H](CC1(C(F)(F)F)CC1)CO2 [Compound 1120] | < 1000 nM | > 60% |  |
| Cc1cccc(C)c1-c1cc2nc(n1)NS(=O)(=O)c1cccc(c1)C(=O)N(Cc1ncc(OC(C)C)cn1)[C@H](CC(C)(C)C(F)(F)F)CO2 [Compound 1121] | < 1000 nM | > 60% |  |
| Cc1cccc(C)c1-c1cc2nc(n1)NS(=O)(=O)c1cccc(c1)C(=O)N(Cc1cccc(N3CCCC3C(C)(C)O)n1)[C@H](CC(C)(C)C)CO2 (stereo partly shown) [Compound 1123] |  |  | activation at 10 µM (Table 13): > 600% |
| Cc1cccc(C)c1-c1cc2nc(n1)NS(=O)(=O)c1cccc(c1)C(=O)N(Cc1nc3c(ccn3C(C)C)cc1F)[C@H](CC(C)(C)C)CO2 [Compound 1124] | < 1000 nM | > 60% |  |
| Cc1cccc(C)c1-c1cc2nc(n1)NS(=O)(=O)c1cccc(n1)C(=O)N(Cc1ccc(N(C)CC(C)(C)C)cn1)[C@H](CC(C)(C)C)CO2 [Compound 1125] | 1000 to 3000 nM | > 60% |  |
| Cc1cccc(C)c1-c1cc2nc(n1)NS(=O)(=O)c1cccc(n1)C(=O)N(Cc1cncc(N(C)CC(C)(C)C)n1)[C@H](CC(C)(C)C)CO2 [Compound 1126] | < 1000 nM | > 60% |  |
| Cc1cccc(C)c1-c1cc2nc(n1)NS(=O)(=O)c1cccc(n1)C(=O)N(Cc1cccc(N3CCCC3C)n1)[C@H](CC(C)(C)C)CO2 (stereo partly shown) [Compound 1127] | < 1000 nM | > 60% |  |
| Cc1cccc(C)c1-c1cc2nc(n1)NS(=O)(=O)c1cccc(n1)C(=O)N(Cc1ncc(OC(C)C)cn1)[C@H](CC(C)(C)C)CO2 [Compound 1128] | < 1000 nM | > 60% |  |
| Cc1cccc(C)c1-c1cc2nc(n1)NS(=O)(=O)c1cccc(c1)C(=O)N(Cc1ncc(OC3CC3)cn1)[C@H](CC(C)(C)C)CO2 [Compound 1129] | < 1000 nM | > 60% |  |
| Cc1cccc(C)c1-c1cc2nc(n1)NS(=O)(=O)c1cccc(c1)C(=O)N(Cc1nc(C3CCC3)no1)[C@H](CC(C)(C)C)CO2 [Compound 1130] |  |  | activation at 10 µM (Table 13): > 600% |
| Cc1cccc(C)c1-c1cc2nc(n1)NS(=O)(=O)c1cccc(c1)C(=O)N(Cc1nc(C(C)(C)C)no1)[C@H](CC(C)(C)C)CO2 [Compound 1131] |  |  | activation at 10 µM (Table 13): > 600% |
| Cc1cccc(C)c1-c1cc2nc(n1)NS(=O)(=O)c1cccc(c1)C(=O)N(Cc1nccc(NC(C)C)c1F)[C@H](CC(C)(C)C)CO2 [Compound 1132] | < 1000 nM | > 60% |  |
| Cc1cc(N2CCC(C)(C)C2)cnc1CN1C(=O)c2cccc(c2)S(=O)(=O)Nc2nc(cc(-c3c(C)cccc3C)n2)OC[C@H]1CC(C)(C)C [Compound 1135] | < 1000 nM | > 60% |  |
| COCCCN(c1cccc(CN2C(=O)c3cccc(c3)S(=O)(=O)Nc3nc(cc(-c4c(C)cccc4C)n3)OC[C@H]2CC(C)(C)C)n1)C(C)C [Compound 1136] | < 1000 nM | > 60% |  |
